For this test, the system named is cells. Description: cell cycle experiments (G2/M). The test is classed as cell-based.

Turning to `N=C(N)c1ccc(OCCCCCOc2ccc(C(=N)N)cc2)cc1` [pentamidine], the “effect on cell cycle” value is “maintain cells in the G2/M cell cycle”.

Source of the values: patent US7915416B2, “Tetrahydroquinolines” (Merck Patent GmbH, priority 2004, dated 2011).
